# Data: US11975072B2, “Pyropheophorbide conjugate and use thereof in the treatment of cancer and as a fluorescent marker” (INSERM (INSTITUT NATIONAL DE LA SANTÉ ET DE LA RECHERCHE …, priority 2017, dated 2024)
# Tests used:
# [1] = Photophysical properties (absorption, fluorescence, singlet oxygen production, lifetimes) in ethanol; format: physicochemical; details: for ϕF fluorescence quantum yield: ±0.02, reference tetraphenylporphyrin in toluene; for ϕΔ quantum yield (singlet oxygen production): ±0.05, reference Rose Bengal in ethanol; for τF fluorescence lifetime: ±0.1 ns; for τΔ singlet oxygen lifetime: ±1 μs
# Experimental: The absorption spectra were measured with a UV-3600 double beam UV-visible spectrophotometer (Shimadzu, Marne La Vallée, France). The fluorescence spectra were measured with a Fluorolog FL3-222 spectrofluorimeter (Horiba Jobin Yvon, Longjumeau, France) equipped with a 450 W xenon arc lamp, with a thermostated (25° C.) cuvette holder compartment, with an R928 UV-visible photomultiplier (Hamamatsu, Japan) and with a liquid nitrogen-cooled InGaAs infrared detector (DSS-16A020L Electro-Optical System Inc, Phoenixville, PA, USA). The excitation beam is diffracted by a SPEX double-grating monochromator (1200 lines/mm blazed at 330 nm). The fluorescence was measured by the UV-visible detector via the SPEX double-grating emission monochromator (1200 lines/mm blazed at 500 nm). The production of singlet oxygen was measured by the infrared detector via the SPEX double-grating emission monochromator (600 lines/mm blazed at 1 μm) and a high-pass filter at 780 nm. All the spectra were measured using 4-face quartz cuvettes. All the emission spectra (singlet-oxygen fluorescence and luminescence) were related back to the same absorbance (less than 0.2) with the lamp and photomultiplier corrections.
# The fluorescence quantum yield was determined by equation (1):
# [formula] where Φf and Φfo, If and Ifo, OD and ODo, n and no, are the quantum yields, the fluorescence intensities, the optical densities, and the refractive indices of the sample and of the reference respectively.
# The reference used for the calculation of the fluorescence quantum yield is tetraphenylporphyrin in toluene with a φfo of 0.11.
# The quantum yield for singlet oxygen production is determined by equation (2):
# [formula] where ΦΔ and ΦΔo, I and Io, OD and ODo are the quantum yields for singlet oxygen production, the singlet oxygen production intensities and the optical densities of the sample and of the reference respectively.
# The reference used for the calculation of the quantum yield for singlet oxygen production is Rose Bengal in ethanol with a φΔo of 0.68.
# The fluorescence lifetime experiments were carried out using, for the excitation, a pulsed laser diode emitting at 407 nm (LDH-P-C-400M, FWHM<70 ps, 1 MHz) coupled to a PDL 800-D pulse generator (PicoQuant GmbH, Berlin, Germany) and, for the detection, an SPCM-AQR-15 avalanche photodiode (EG & G, Vaudreuil, Canada) coupled to a high-pass filter at 650 nm.
# The acquisition was carried out using a PicoHarp 300 module linked to a PHR-800 4-channel router (PicoQuant GmbH, Berlin, Germany). The fluorescence declines were recorded using the single photon counting method (Time Correlated Single Photon Counting TCSPC). The data were collected until 1000 accumulated counts in a channel were obtained, then analyzed using the TCSPC Fluofit software (PicoQuant GmbH, Berlin, Germany) based on an iterative reconvolution using a Levensberg-Marquandt algorithm which allows multiexponential declines to be obtained.
# The singlet oxygen lifetime measurements were carried out with a Tempro-01 spectrophotometer (Horiba Jobin Yvon, Longjumeau, France) composed of a SpectraLED-415 pulsed excitation diode emitting at 415 nm, of a cuvette holder compartment, of an emission monochromator of Seya-Namioka type (600-2000 nm) and of an H10330-45 thermoelectrically regulated near infrared photomultiplier tube (Hamamatsu, Japan). The assembly is controlled by the FluoroHub-B counting module and the DataStation and DAS6 software (Horiba Jobin Yvon).
# The emission spectra and the phosphorescence lifetime measurements were carried out with a Fluorolog FL3-22 spectrofluorimeter (Horiba Jobin Yvon, Longjumeau, France) equipped with a 450 W continuous xenon lamp, with a xenon flash lamp, with a thermostated (25° C.) cuvette holder compartment and with an R928 UV-visible photomultiplier (Hamamatsu, Japan). The assembly is controlled by the FluoroHub-B counting module. […]
# [2] = in ethanol; cited from earlier work
Molecule,"εQI (molar extinction coefficient, QI band) [1]",εsoret band (molar extinction coefficient) [1],λQI (QI band absorption peak) [1] [nm],ϕF fluorescence quantum yield [1],ϕΔ quantum yield (singlet oxygen production) [1],τF fluorescence lifetime [1] [ns],τΔ singlet oxygen lifetime [1] [μs],φΔo quantum yield for singlet oxygen production of the reference [2]
pheophorbide-a [Pheo(a)-COOH],32 537 L · mol^−1 · cm^−1,69 663 L · mol^−1 · cm^−1,667,0.44,0.52,5.7,12,
pyropheophorbide-a [Pyro(a)-COOH],33 265 L · mol^−1 · cm^−1,76 326 L · mol^−1 · cm^−1,668,0.34,0.52,6.7,13,
O=C([O-])c1c(Cl)c(Cl)c(Cl)c(Cl)c1-c1c2cc(I)c(=O)c(I)c-2oc2c(I)c([O-])c(I)cc12.[Na+].[Na+] [Rose Bengal],,,,,,,,0.68
